Reference: ChEMBL document CHEMBL5584300, “Bioinformatic Approaches Identify Hybrid Antibiotics against Tuberculosis via d-Amino Acid-Activating Adenylation Domains from Cordyceps militaris” (J Nat Prod, 2024)
Converted amounts (≈) assume the structure as drawn. The source made the active and inactive calls. The calls are words filed in the database; no cut-off is given here.

Legend:
[1] = system: Mycobacterium tuberculosis; assay: Antitubercular activity against Mycobacterium tuberculosis H37Rv ATCC 27294 assessed as reduction in microbial growth incubated for 6 days under aerobic condition by microplate Alamar Blue assay; type: functional; settings: H37Rv ATCC 27294, 144 h, time 6 day
[2] = system: Mycolicibacterium smegmatis; assay: Antitubercular activity against Mycobacterium smegmatis mc2 155 assessed as reduction in microbial growth incubated for […] by CLSI based broth microdilution method; type: functional
[3] = system: Mycobacterium tuberculosis; assay: Antitubercular activity against Mycobacterium tuberculosis H37Rv ATCC 27294 assessed as reduction in microbial growth incubated for 6 days under anaerobic condition by microplate Alamar Blue assay; type: functional; settings: H37Rv ATCC 27294, 144 h, time 6 day
[4] = Cytotoxicity against human HepG2 cells assessed as reduction in cell viability incubated for 48 hrs by sulforhodamine B assay; type: toxicity, cell-based
[5] = Cytotoxicity against human DLD-1 cells assessed as reduction in cell viability incubated for 48 hrs by sulforhodamine B assay; type: toxicity, cell-based
[6] = Cytotoxicity against human HGC-27 cells assessed as reduction in cell viability incubated for 48 hrs by sulforhodamine B assay; type: toxicity, cell-based
Staphylococcus aureus [7] = assay: Antibacterial activity against methicillin-resistant Staphylococcus aureus ATCC 43300 assessed as reduction in microbial growth incubated for 20 hrs by CLSI based broth microdilution method; type: functional
Enterococcus faecalis [8] = assay: Antibacterial activity against Enterococcus faecalis ATCC 29212 assessed as reduction in microbial growth incubated for 20 hrs by CLSI based broth microdilution method; type: functional
Staphylococcus aureus [9] = assay: Antibacterial activity against Staphylococcus aureus ATCC 6538P assessed as reduction in microbial growth incubated for 20 hrs by CLSI based broth microdilution method; type: functional
Staphylococcus aureus [10] = assay: Antibacterial activity against methicillin-resistant Staphylococcus aureus ATCC 6538 assessed as reduction in microbial growth incubated for 20 hrs by CLSI based broth microdilution method; type: functional
Staphylococcus aureus [11] = assay: Antibacterial activity against Staphylococcus aureus ATCC 25923 assessed as reduction in microbial growth incubated for 20 hrs by CLSI based broth microdilution method; type: functional
Bacillus subtilis = assay: Antibacterial activity against Bacillus subtilis ATCC 9372 assessed as reduction in microbial growth incubated for 20 hrs by CLSI based broth microdilution method; type: functional
Enterococcus faecalis [12] = assay: Antibacterial activity against vancomycin-resistant Enterococcus faecalis ATCC 51299 assessed as reduction in microbial growth incubated for 20 hrs by CLSI based broth microdilution method; type: functional
[13] = system: Mycobacterium tuberculosis; assay: Antitubercular activity against Mycobacterium tuberculosis H37Rv ATCC 27294 infected in BALB/c mouse chronic model assessed as log reduction in lung at 10 mg/kg drug administered after 28 days post infection and measured after 4 weeks; type: functional
[14] = system: Mycobacterium tuberculosis; assay: Antitubercular activity against Mycobacterium tuberculosis H37Rv ATCC 27294 infected in BALB/c mouse assessed as log reduction in lung at 10 mg/kg measured after 4 weeks; type: functional
[15] = system: Mycobacterium tuberculosis; assay: Antitubercular activity against Mycobacterium tuberculosis H37Rv ATCC 27294 assessed as reduction in microbial growth incubated for 6 days by microplate Alamar Blue assay; type: functional; settings: H37Rv ATCC 27294, 144 h, time 6 day
[16] = system: Mycobacterium tuberculosis; assay: Bactericidal activity against Mycobacterium tuberculosis H37Rv ATCC 27294 expressing pFCA-luxAB assessed as reduction in bacterial count at 16 times MIC preincubated for 10 days under hypoxic condition followed by aerobic condition for 28 hrs by LORA; type: functional, organism-based; settings: time 268.0 hrs
[17] = system: Mycobacterium tuberculosis; assay: Antitubercular activity against Mycobacterium tuberculosis H37Rv ATCC 27294 infected in BALB/c mouse assessed as reduction in bacterial count measured after 4 weeks; type: functional, organism-based; settings: dose 160-640 mg/kg
[18] = Cytotoxicity against human Hep3B cells assessed as reduction in cell viability incubated for 48 hrs by sulforhodamine B assay; type: toxicity, cell-based, Hep 3B2
[19] = system: Mycobacterium tuberculosis; assay: Antitubercular activity against Mycobacterium tuberculosis H37Rv ATCC 27294 infected in BALB/c mouse assessed as log reduction in lung at 160 mg/kg measured after 4 weeks; type: functional
[20] = system: Mycobacterium tuberculosis; assay: Antitubercular activity against Mycobacterium tuberculosis H37Rv ATCC 27294 infected in BALB/c mouse chronic model assessed as log reduction in lung at 320 mg/kg drug administered twice daily after 28 days post infection and measured after 4 weeks; type: functional
Escherichia coli = assay: Antibacterial activity against Escherichia coli ATCC 25922 assessed as reduction in microbial growth incubated for 20 hrs by CLSI based broth microdilution method; type: functional
[21] = system: Mycobacterium tuberculosis; assay: Bactericidal activity against Mycobacterium tuberculosis H37Rv ATCC 27294 assessed as reduction in bacterial count at 16 time MIC by time kill assay; type: functional, organism-based; settings: time 2-10 day, TDE = time-dependent effect
[22] = system: Mycobacterium tuberculosis; assay: Antitubercular activity against Mycobacterium tuberculosis H37Rv ATCC 27294 infected in BALB/c mouse assessed as reduction in bacterial count at 10 to 40 mg/kg measured after 4 weeks; type: functional, organism-based; settings: dose 10-40 mg/kg
[23] = system: Mycobacterium tuberculosis; assay: Antitubercular activity against Mycobacterium tuberculosis H37Rv ATCC 27294 infected in BALB/c mouse assessed as reduction in bacterial count at 80 mg/kg measured after 4 weeks relative to control; type: functional; design: scale not given: the % may be the effect or the level left
[24] = system: Mycobacterium tuberculosis; assay: Antitubercular activity against Mycobacterium tuberculosis H37Rv ATCC 27294 infected in BALB/c mouse assessed as reduction in bacterial count in lung at 10 mg/kg measured after 4 weeks; type: functional, organism-based

`CC1=C[C@H]2C[C@@H](C)CC[C@@H]2[C@@](C)(C(=O)C2=C(O)[C@H](CO)N(C)C2=O)[C@H]1/C=C/C=C/C=C/C[C@@H](C)O` gave an MIC [1] of 1 µg/mL, an MIC [2] of over 64 µg/mL and an MIC [3] of over 64 µg/mL.

With `CC1=C[C@@H]2C[C@@H](C)CC[C@]2(C)[C@@](C)(C(=O)C2=C(O)[C@@H](CO)NC2=O)[C@H]1/C=C/C=C/C=C/C[C@@H](C)O` the MIC [1] was 2 µg/mL, the MIC [2] was over 64 µg/mL and the MIC [3] was over 64 µg/mL.

For `CC(=O)O[C@H]1C(=O)[C@@]2(C)[C@H]([C@H](OC(=O)c3ccccc3)[C@]3(O)C[C@H](OC(=O)[C@H](O)[C@@H](NC(=O)c4ccccc4)c4ccccc4)C(C)=C1C3(C)C)[C@]1(OC(C)=O)CO[C@@H]1C[C@@H]2O` [PACLITAXEL], the IC50 at 48 h [4] was 0.016 µg/mL (≈ 0.0187 µM), the IC50 at 48 h [5] was 0.031 µg/mL (≈ 0.0363 µM) and the IC50 at 48 h [6] was 8 ng/mL (≈ 0.00937 µM).

`CC1(C)S[C@@H]2[C@H](NC(=O)[C@H](N)c3ccccc3)C(=O)N2[C@H]1C(=O)O` [AMPICILLIN] gave an MIC (Staphylococcus aureus [7]) of over 64 µg/mL, an MIC (Enterococcus faecalis [8]) of 2 µg/mL and an MIC (Staphylococcus aureus [9]) of over 64 µg/mL. The MIC (Staphylococcus aureus [10]) was 2 µg/mL, the MIC (Staphylococcus aureus [11]) was 4 µg/mL and the MIC (Bacillus subtilis) was 4 µg/mL. The MIC (Enterococcus faecalis [12]) was 4 µg/mL.

Compound `NNC(=O)c1ccncc1` [ISONIAZID] has an Activity [13] of 3 log10CFU and an Activity [14] of 2.5 log10CFU.

For `C/C=C/C=C/[C@H]1C(C)=C[C@H]2C[C@@H](C)CC[C@@H]2[C@@]1(C)/C(O)=C1/C(=O)[C@@H](CO)N(C)C1=O`, the MIC [15] was 16 µg/mL.

In the case of `CC1=C[C@H]2C[C@@H](C)CC[C@]2(C)[C@@](C)(C(=O)C2=C(O)[C@@H](CO)N(C)C2=O)[C@H]1/C=C/C=C/C=C/C[C@@H](C)O`, the MIC (Staphylococcus aureus [7]) is reported as 4 µg/mL, the Activity [16] is reported as “inactive” and the MIC (Enterococcus faecalis [8]) is reported as 4 µg/mL. The Activity [17] was “Dose-Dependent Effect”, the MIC [1] was 0.016 µg/mL and the MIC (Staphylococcus aureus [9]) was 8 µg/mL. It also gave an IC50 at 48 h [18] of over 64 µg/mL, an IC50 at 48 h [4] of over 64 µg/mL and an Activity [19] of 2 log10CFU. The MIC (Staphylococcus aureus [10]) was 4 µg/mL, the MIC [2] was 0.25 µg/mL and the Activity [20] was 2.3 log10CFU. For the same compound, the MIC (Escherichia coli) was over 64 µg/mL, the IC50 at 48 h [5] was over 64 µg/mL and the Activity [21] was “Tde”. The IC50 at 48 h [6] was over 64000 ng/mL, the MIC (Staphylococcus aureus [11]) was 8 µg/mL and the Activity [22] was “Dose-Dependent Effect”. It also gave an MIC (Bacillus subtilis) of 8 µg/mL, an MIC (Enterococcus faecalis [12]) of 8 µg/mL and an MIC [3] of over 64 µg/mL. For the same compound, the Activity [23] was 100%.

With `CC1=C[C@H]2C[C@@H](C)CC[C@]2(C)[C@@](C)(C(=O)C2=C(O)[C@@H](CO)NC2=O)[C@H]1/C=C/C=C/C=C/C[C@@H](C)O` the MIC [1] was 0.5 µg/mL, the MIC [2] was over 64 µg/mL and the MIC [3] was over 64 µg/mL.

`CO[C@H]1/C=C/O[C@@]2(C)Oc3c(C)c(O)c4c(O)c(c(/C=N/N5CCN(C)CC5)c(O)c4c3C2=O)NC(=O)/C(C)=C\C=C\[C@H](C)[C@H](O)[C@@H](C)[C@@H](O)[C@@H](C)[C@H](OC(C)=O)[C@@H]1C` [RIFAMPIN] gave an MIC [1] of 0.25 µg/mL, an Activity [13] of 3 log10CFU and an MIC [15] of 0.25 µg/mL. For the same compound, the MIC [2] was 16 µg/mL, the MIC [3] was over 64 µg/mL and the Activity [24] was “inactive”.

With `C/C=C/[C@@H]1C=C[C@@H]2C[C@H](C)CC[C@H]2[C@]1(C)/C(O)=C1/C(=O)[C@H](CO)N(C)C1=O` the MIC [15] was over 64 µg/mL.
